The target of assay [1] is T1, LIMK1 (Homo sapiens, UniProt P53667).
T1 construct: purchased Upstate Biotechnologies, Lake Placid, N.Y
Description: In vitro LIMK1 kinase assay with GST-tagged recombinant human cofilin. Type of assay: biochemical. As to the method:
LIMK1 Kinase assays were performed using purified LIMK1 and GST-tagged recombinant human cofilin (Upstate Biotechnologies, Lake Placid, N.Y.) according to the manufacture's recommendation with minor modifications. Briefly, 18 μg of recombinant cofilin was incubated in 1× Kinase reaction buffer ([…], pH7.0, 200 μM EDTA) in the presence or absence of Staurosporine (200 nM) or the S3, Q104 peptides. LIMK1 was serially diluted in dilution buffer (20 mM MOPS-NaOH pH 7.0, 1 mM EDTA, 0.01% Brij-35, 5% glycerol, 0.1% 2-ME, 1 mg/ml BSA), then added into the reaction along with the ATP buffer (10 mM Magnesium Acetate, 100 μM ATP). The reaction was incubated for 15 minutes at 30° C. with constant agitation. The reaction was stopped by adding 25% (V/V) of 4×LDS sample buffer for SDS-PAGE and heated for 10 minutes at 70° C. Cofilin phosphorylation was analyzed by SDS-PAGE and western blotting using a rabbi anti-phospho-cofilin (ser3) antibody (Cell Signaling, Danvers, Mass.) as described in Example 10.

Assay [2] deals with HIV-1. Description: HIV-1 latent infection of resting CD4 T cells, viral replication assay (p24 ELISA) after anti-CD3/CD28 activation. To be noted: for HIV replication in resting T cells: 5 minutes before infection. The assay is classed as cell-based, HIV-1NL4-3. As to the method:
Virus stocks of the HIV-1NL4-3 (Adachi et al. J Virol 59(2), 284-91 (1986)) were prepared by transfection of HeLa cells with cloned proviral DNA as described in Wu and Marsh (2001). Supernatant was harvested at 48 hours, and filtered through a 0.45 μm nitrocellulose membrane. Virus titer (TCID50) was measured by infection of a Rev-CEM indicator cell line which was constructed through stable integration of a Rev-dependent GFP expression lentiviral vector into CEM-SS. […] For infection of resting CD4 T cells, viruses were first titrated to determine minimal levels detectable by p24 ELISA in replication assays described below. Unless specified, for most replication assays, 10^3.5 to 10^4.5 TCID50 units of HIV-1 were used to infect 10^6 cells. For infection procedure, CD4 T cells were incubated with the virus for 2 hours, then washed twice with medium to remove unbound virus. Infected cells were resuspended into fresh RPMI 1604 medium supplemented with 10% heat-inactivated fetal bovine serum, penicillin (50 U/ml) and streptomycin (50 μg/ml) at a density of 10^6 per ml and incubated for 5 days without stimulation. Cells were activated at day 5 with anti-CD3/CD28 magnetic beads at 4 beads per cells. For viral replication assay, 10% of infected cells were taken at 1, 3, 5, 6, 7, 8, 9 days post infection. Cells were pelleted and the supernatant was saved for p24 ELISA. Levels of p24 in the supernatant were measured by using Coulter HIV-1 p24 Assay Kit (Beckman Coulter, Inc. Miami, Fla.). Plates were kinetically read using ELx808 automatic microplate reader (Bio-Tek Instruments, Inc. Winooski, Vt.) at 630 nm.
Resting CD4 T cells were treated with pertussis toxin (Sigma, St. Louis, Mo.) at a final concentration of 100 ng/ml for 2 hours, then infected with HIV-1. Following infection, cells were washed 2 to 3 times to remove cell-free virus and the inhibitor. Cells were treated with Jasplakinolide (Molecular Probes, Eugene, Oreg.) for 1 to 2 hours or Latrunculin A (Biomol, Plymouth Meeting, Pa.) for 5 minutes at various concentrations, washed twice with medium, then infected with HIV-1. Following infection, cells were washed twice to remove cell free virus. Cells were treated with 200 nM of Staurosporine (Biomol, Plymouth Meeting, Pa.) for 2 hours, then infected with HIV-1. Following infection, cells were washed twice to remove cell-free virus and the inhibitor.
Resting CD4 T cells were treated with S3 or Q104 for I to 2 hours, then infected with HIV-1. Following infection, cells were washed 2 to 3 times to remove cell-free virus and the peptides.
Effects of Jas on LFA-1 activation also were tested. Jas treated or untreated resting T cells were activated by anti-CD3/CD28 bead and stained with human ICAM-1/Fc chimera and analyzed by flow cytometer. The effects of Jas on IL-2 secretion also were measured. […] Cells were treated with Jas for 2 hours, washed, infected with HIV-1 for 5 days, then activated by anti-CD3/CD28 bead. […] Following infection, cellular DNA was PCR amplified for viral late DNA and β-actin pseudogene. Cells were pre-activated with PHA plus IL-2, then treated and infected as in FIG. 3A. […] CEM-SS cell were treated and infected as in FIG. 3A.
On the technique in general: An ELISA detects its analyte on a solid surface through an enzyme-linked reagent.

For assay [3], the system named is F-actin. The experiment in a line: FITC-phalloidin staining of F-actin and flow cytometry in resting CD4 T cells. Type of assay: cell-based, human. The protocol:
Cells were stimulated with HIV-1 or gp120 IIIB (Microbix Biosystems Inc. Toronto, Ontario). F-actin staining using FITC-labeled phalloidin (Sigma, St. Louis, Mo.) was carried out according to the manufacture's recommendation with minor modifications. Briefly, each staining was carried out by using 10^6 cells. Cells were pelleted, fixed and permeabilized with cytoperm/cytofix (BD biosciences, San Diego, Calif.) for 20 min on ice, followed by stained with 5 μl of 0.3 uM FITC-labeled phalloidin for 30 min at 4° C. After wash, cells were resuspended in 1% paraformaldehyde and analyzed on FACSCalibur (BD Biosciences, San Jose, Calif.)
In general terms: In flow cytometry, cells or beads pass a laser one at a time.

Assay [4] deals with IL-2 secretion. Description: IL-2 ELISA of cell culture supernatant after T cell activation. To be noted: 200 nM, treated, incubated and activated. The assay is classed as cell-based, human. The protocol: IL-2 release into cell culture supernatant was detected by a human IL-2 ELISA development kit (PeproTech, Rocky Hill, N.J.) according to the manufacture's instruction. Briefly, each well of a plate was coated with 100 μl of capture antibody (1 μg/ml) and incubated overnight at room temperature, then washed and blocked with 300 μl of blocking solution for one hour at room temperature. Samples in plates were incubated for 1 hour at 37° C., then washed and incubated with 100 μl of detection antibody (0.5 μg/ml) for 1 hour at 37° C. Plates were washed and incubated with 100 μl of the avidin-peroxidase conjugate (1:2000 dilution) for 30 minutes at room temperature followed by washing and incubation with 100 μl of Tetramethylbenzidine (TMB) substrate buffer. Plates were kinetically read using ELx808 automatic microplate reader (Bio-Tek Instruments, Inc. Winooski, Vt.) at 630 nm.

Assay [5] concerns cofilin. Description: Cofilin and phospho-cofilin western blot in resting CD4 T cells. Type of assay: cell-based, human. The protocol:
For activation of resting CD4 T cells with PHA (3 μg/ml) (Sigma, St. Louis, Mo.) plus IL-2 (100 U/ml) (Roche Applied Science, Indianapolis, Ind.), cells were cultured in the presence of these agents for 1 day.
Briefly, 10^6 of CD4 T cells were lysed in NuPAGE LDS Sample Buffer (Invitrogen, Carlsbad, Calif.) followed by sonication. Samples were heated at 70° C. for 10 minutes before loading, then separated by SDS-PAGE and transferred onto nitrocellulose membranes (Invitrogen, Carlsbad, Calif.). The membranes were washed in TBS for 5 minutes and then blocked for 30 minutes at room temperature with Starting Block blocking buffer (Pierce, Rockford, Ill.). The blots were incubated with either a rabbit anti-cofilin antibody (1:1000 dilution) (Cell Signaling, Danvers, Mass.) or a rabbit anti-phospho-cofilin (ser3) antibody (1:1000 dilution) (Cell Signaling, Danvers, Mass.) diluted in 5% BSA-TBST and rocked at room temperature for 1 hour. The blots were washed three times for 15 minutes each and then incubated with a goat anti-rabbit horseradish peroxidase-conjugated antibodies (KPL, Inc. Gaithersburg, Md.) diluted in 2.5% skim milk-TBST (1:1000) for 1 hour. […] Images were captured with a CCD camera (Fluor Chem 9900 Imaging Systems) (Alpha Innotech, San Leandro, Calif.) and analyzed and processed by NIH-Image Version 163.

Assay [6] deals with HIV. To be noted: Doranz et al. 1999; cited from earlier work.
Setting [7] is: 200 nM added during T cell activation at day 5.

T1 sequence (P53667 whole entry, species assumed): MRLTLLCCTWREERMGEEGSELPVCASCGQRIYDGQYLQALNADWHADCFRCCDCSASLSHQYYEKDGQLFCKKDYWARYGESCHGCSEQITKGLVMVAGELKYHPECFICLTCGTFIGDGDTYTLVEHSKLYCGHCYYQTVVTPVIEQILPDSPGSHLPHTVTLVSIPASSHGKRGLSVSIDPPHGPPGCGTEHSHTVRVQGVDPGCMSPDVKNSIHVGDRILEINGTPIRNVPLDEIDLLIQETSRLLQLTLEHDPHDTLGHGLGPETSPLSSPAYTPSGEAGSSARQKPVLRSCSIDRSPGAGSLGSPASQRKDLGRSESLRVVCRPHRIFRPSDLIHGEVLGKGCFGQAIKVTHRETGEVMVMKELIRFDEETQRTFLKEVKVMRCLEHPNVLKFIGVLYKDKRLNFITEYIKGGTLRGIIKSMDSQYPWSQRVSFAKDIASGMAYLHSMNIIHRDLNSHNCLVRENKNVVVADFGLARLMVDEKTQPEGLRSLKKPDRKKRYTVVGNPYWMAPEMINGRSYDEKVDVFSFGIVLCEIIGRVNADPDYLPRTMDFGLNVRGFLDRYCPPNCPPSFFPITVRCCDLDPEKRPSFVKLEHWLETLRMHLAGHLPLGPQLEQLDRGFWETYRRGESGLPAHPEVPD

Turning to “S3: Synthetic peptide MASGVAVSDGVIKVFN (SEQ ID NO: 3), N-terminal 16 amino acids of human cofilin”, in assay [1] (peptide), the “cofilin phosphorylation by LIMK1” value is “inhibited cofilin phosphorylation”. Further, the “viral replication in resting CD4 T cells” value in assay [2] (pre-treated 2 hours, then infected) is given as “enhanced viral replication”.
Regarding SDF-1: the natural ligand for CXCR4, the F-actin change result in assay [3] (50 ng/ml) is recorded as “rapid actin polymerization”.
Turning to `CN[C@@H]1C[C@H]2O[C@@](C)([C@@H]1OC)n1c3ccccc3c3c4c(c5c6ccccc6n2c5c31)C(=O)NC4` [staurosporine], in assay [1] (200 nM), the “LIMK1 inhibition compared with S3 peptide” value is on record as “much stronger” and the “phosphorylation of cofilin by LIMK1” value is listed as “directly inhibited”. For the same compound, the actin depolymerization entry in assay [3] (200 nM) was “actin depolymerization also was observed”. Further, in assay [2] (setting [7]), the HIV-1 replication entry was “completely abolished HIV-1 replication” and the T cell activation result is recorded as “inhibited T cell activation”. In assay [2] (200 nM briefly before infection), the “HIV replication in resting CD4 T cells” value is reported as “dramatic enhancement”. Also, in assay [4], the IL-2 secretion result is reported as “slight inhibition”. Moreover, the “cofilin phosphorylation in resting CD4 T cells” value in assay [5] (200 nM, no stimulation) was “gradual dephosphorylation and activation of cofilin”.
In the case of pertussis toxin [P.T], the “inhibition of viral induced actin depolymerization” value in assay [3] (100 ng/ml for 2 hours, then HIV-1) is on record as “completely inhibited”. Besides, the “viral replication in CXCR4 transfected U87-MG cells” value in assay [6] was “did not affect viral replication”. In addition, in assay [2] (100 ng/ml for 2 hours before infection), the “viral replication in resting T cells” value is on record as “inhibited viral replication”. In addition, in assay [5] (pretreated, then infected with HIV-1), the “inhibition of HIV-1 induced cofilin activation” value is given as “Complete inhibition”.
As to `C/C1=C/C(=O)O[C@@H]2C[C@@H](CC[C@H](C)/C=C\C=C\CC1)O[C@@](O)([C@@H]1CSC(=O)N1)C2` [Lat-A, Latrunculin A], the actin depolymerization result in assay [3] (25 nM, 5 min) is on record as “actin depolymerization to an extent similar to that induced by HIV-1”; in assay [3] (2.5 μM to 250 nM, 5 min), “dramatic actin depolymerization”. In assay [2] (25 nM, 5 minutes), the “HIV replication in resting T cells, treatment before vs after infection” value is given as “enhancement was seen only in cells pretreated with Lat-A prior to infection”. Moreover, the “HIV replication in resting T cells” value is “Enhanced HIV replication” in assay [2] (25 nM), “donor-dependent variations from enhancement to inhibition” in assay [2] (250 nM) and “inhibited viral replication in all donors” in assay [2] (2.5 μM).

The values above are taken from patent US7662547B2, “Compositions and methods for detecting and treating HIV infections” (priority 2006, dated 2010).
